# Data from PubChem BioAssay AID2060497 (Molecular Pharmacology Branch, DTP, NCI, 2025).
# System: 317291-083-R-J1-PDC complex spheroids, viability
# Experiment: Anticancer human tumor 317291-083-R-J1-PDC patient-derived soft tissue sarcoma cell line growth inhibition [GQUAD]
# Conditions: for IC50: curve of first compound; for viability, T/C: stronger effect = lower value
# From the text: DNA G-quadruplex Stabilizer Agents in Combinations in Complex Spheroids
# A high-throughput screen of multi-cell type tumor spheroids was designed to identify active combinations of DNA G-quadruplex stabilizer agents and targeted small molecules. Complex spheroids include a stromal component modeled by human endothelial cells (HUVEC) and fibroblasts modeled by human mesenchymal stem cells (MSCs). The concentration ranges selected for each drug and investigational agent were based upon clinically achievable concentrations if the clinical Cmax of the agent was known.
# Compounds. The drugs and investigational agents: pidnarulex (CX-5461; NSC782164), APTO-253 (NSC789042), BRACO-19 (NSC847499), peposertib (NSC802822), ceralasertib (NSC780249), elimusertib (NSC800525), camonsertib (NSC841442), AZD-1390 (NSC803789), olaparib (NSC753686), talazoparib (NSC767125), ART-558 (NSC835418), sotorasib (NSC818433), MRTX-1133 (NSC836407), SN-38 (NSC673596), topotecan (NSC609699), etoposide (NSC141540), doxorubicin (NSC123127), gemcitabine (NSC613327), 5-fluorouracil (NSC19893), paclitaxel (NSC125973), vemurafenib (NSC761431), panobinostat (NSC761190), R-306465 (JNJ-16241199; NSC773264), adavosertib (NSC754352), TP-3654 (NSC805149), carboplatin (NSC241240), KSQ-4279 (NSC840948), and staurosporine (NSC755774) were obtained from the National Cancer Institute (NCI) Developmental Therapeutics Program Chemical Repository (34). The FDA-approved anticancer drug set is available from the NCI Developmental Therapeutics Program. […] The stock solutions were prepared in dimethyl sulfoxide (DMSO, Sigma-Aldrich, St. Louis, MO, cat. D2650) at 800-fold the tested concentration and stored at -70 degrees C prior to their use. All drugs and investigational agents were tested over a range starting from a high concentration at or near the clinical Cmax and decreasing in half-log increments. If the clinical Cmax for an agent had not been determined, the highest concentration tested was 10 microM.
# 2.3 Cell Culture. All cells were maintained in an incubator at 37 degrees C and 5% CO2 with 95% humidity. The PDC lines were cultured according to standard operating procedures established by the NCI PDMR. All PDCs were thawed and cultured in Matrigel-coated flasks prepared with a working solution of 1X Ham's F-12 nutrient mix, without supplementation (Invitrogen, cat. 11765054), 100 U/mL penicillin-streptomycin (Invitrogen, cat. 15140122), and 2.5% Matrigel (Corning Inc., cat. 354248) for the first three passages. The 857933-349-R-J2-PDC line was cultured in 6C/Colon 1B media, which includes advanced DMEM/F-12 (Thermo Fisher Scientific, cat. 12634028), 10 mM HEPES (Thermo Fisher Scientific, cat. 15630080), 1X GlutaMAX supplement (Thermo Fisher Scientific, cat. 35050061), 0.1 mg/mL primocin (InvivoGen, cat. ant-pm-2), 10% defined fetal bovine serum, heat inactivated (HyClone Laboratories Inc., cat. SH30070.03HI), 50% L-WRN conditioned media (ATCC, cat. CRL-3276), 1.25 mM N-Acetyl-L-cysteine (Sigma-Aldrich, cat. A9165), 10 mM nicotinamide (Sigma-Aldrich, cat. N0636), 1X B-27 supplement (Thermo Fisher Scientific, cat. 17504044), 1X N-2 supplement (Thermo Fisher Scientific, cat. 17502048), 10 microM Y-27632 dihydrochloride (Tocris Bioscience, cat. 1254), and 50 ng/mL human EGF recombinant protein (Thermo Fisher Scientific, cat. PHG0311). The 485176-168-R4-J1-PDC line was cultured in Panc media, which includes all 6C/Colon 1B media components plus 100 ng/mL human FGF-10 (Thermo Fisher Scientific, cat. 100-26), 500 nM SB-431542 (Selleckchem, cat. S1067), and gastrin (Tocris, cat. 3006).
# […]
# [1] = second compound 0.0316 µM, first compound 0.0316 µM
# [2] = second compound 0.0316 µM, first compound 0.1 µM
# [3] = second compound 0.0316 µM, first compound 0.316 µM
# [4] = second compound 0.0316 µM, first compound 1 µM
# [5] = second compound 0.0316 µM, first compound 3.16 µM
# [6] = second compound 0.0316 µM, first compound 10 µM
# [7] = second compound 0.1 µM, first compound 0.0316 µM
# [8] = second compound 0.1 µM, first compound 0.1 µM
# [9] = second compound 0.1 µM, first compound 0.316 µM
# [10] = second compound 0.1 µM, first compound 1 µM
# [11] = second compound 0.1 µM, first compound 3.16 µM
# [12] = second compound 0.1 µM, first compound 10 µM
# [13] = second compound 0.316 µM, first compound 0.0316 µM
# [14] = second compound 0.316 µM, first compound 0.1 µM
# [15] = second compound 0.316 µM, first compound 0.316 µM
# [16] = second compound 0.316 µM, first compound 1 µM
# [17] = second compound 0.316 µM, first compound 3.16 µM
# [18] = second compound 0.316 µM, first compound 10 µM
# [19] = second compound 1 µM, first compound 0.0316 µM
# [20] = second compound 1 µM, first compound 0.1 µM
# [21] = second compound 1 µM, first compound 0.316 µM
# [22] = second compound 1 µM, first compound 1 µM
# [23] = second compound 1 µM, first compound 3.16 µM
# [24] = second compound 1 µM, first compound 10 µM
# [25] = second compound 3.16 µM, first compound 0.0316 µM
# [26] = second compound 3.16 µM, first compound 0.1 µM
# [27] = second compound 3.16 µM, first compound 0.316 µM
# [28] = second compound 3.16 µM, first compound 1 µM
# [29] = second compound 3.16 µM, first compound 3.16 µM
# [30] = second compound 3.16 µM, first compound 10 µM
# [31] = second compound 10 µM, first compound 0.0316 µM
# [32] = second compound 10 µM, first compound 0.1 µM
# [33] = second compound 10 µM, first compound 0.316 µM
# [34] = second compound 10 µM, first compound 1 µM
# [35] = second compound 10 µM, first compound 3.16 µM
# [36] = second compound 10 µM, first compound 10 µM
# 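Further: spheroids exposed to compounds for one week before readout.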
# 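Wherever viability, T/C is given: percent viability relative to DMSO vehicle wells taken as 100%.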
compound,measurement,setting,value
COc1cccc2c1C(=O)c1c(O)c3c(c(O)c1C2=O)CC(O)(C(=O)CO)CC3OC1CC(N)C(O)C(C)O1 (centres undefined) + Cc1cnc(CNC(=O)c2c(=O)c3ccc(N4CCCN(C)CC4)nc3n3c2sc2ccccc23)cn1,IC50,second compound 0.0316 µM,72.5 nM
same,IC50,second compound 0.1 µM,47.1 nM
same,IC50,second compound 0.316 µM,< 31.6 nM
same,IC50,second compound 1 µM,< 31.6 nM
same,IC50,second compound 3.16 µM,< 31.6 nM
same,IC50,second compound 10 µM,< 31.6 nM
same,"viability, T/C",[1],84%
same,"viability, T/C",[2],34%
same,"viability, T/C",[3],21.1%
same,"viability, T/C",[4],10.7%
same,"viability, T/C",[5],1.84%
same,"viability, T/C",[6],4.21%
same,"viability, T/C",[7],62.7%
same,"viability, T/C",[8],24%
same,"viability, T/C",[9],18.2%
same,"viability, T/C",[10],8.39%
same,"viability, T/C",[11],3.34%
same,"viability, T/C",[12],2.66%
same,"viability, T/C",[13],45.8%
same,"viability, T/C",[14],35%
same,"viability, T/C",[15],22.1%
same,"viability, T/C",[16],6.47%
same,"viability, T/C",[17],2.05%
same,"viability, T/C",[18],2.05%
same,"viability, T/C",[19],38.1%
same,"viability, T/C",[20],18.4%
same,"viability, T/C",[21],15.9%
same,"viability, T/C",[22],12.2%
same,"viability, T/C",[23],1.05%
same,"viability, T/C",[24],1.27%
same,"viability, T/C",[25],18.5%
same,"viability, T/C",[26],15.8%
same,"viability, T/C",[27],11.6%
same,"viability, T/C",[28],0.53%
same,"viability, T/C",[29],0.36%
same,"viability, T/C",[30],1.14%
same,"viability, T/C",[31],16.5%
same,"viability, T/C",[32],15.6%
same,"viability, T/C",[33],20.6%
same,"viability, T/C",[34],20.7%
same,"viability, T/C",[35],0.34%
same,"viability, T/C",[36],0.34%
CC(C)n1c(=O)n(C)c2cnc3cc(F)c(-c4ccc(OCCCN5CCCCC5)nc4)cc3c21 + Cc1cnc(CNC(=O)c2c(=O)c3ccc(N4CCCN(C)CC4)nc3n3c2sc2ccccc23)cn1,IC50,second compound 0.0316 µM,858 nM
same,IC50,second compound 0.1 µM,< 31.6 nM
same,IC50,second compound 0.316 µM,< 31.6 nM
same,IC50,second compound 1 µM,< 31.6 nM
same,IC50,second compound 3.16 µM,< 31.6 nM
same,IC50,second compound 10 µM,< 31.6 nM
same,"viability, T/C",[1],57.3%
same,"viability, T/C",[2],51.3%
same,"viability, T/C",[3],45.1%
same,"viability, T/C",[4],29.2%
same,"viability, T/C",[5],73.3%
same,"viability, T/C",[6],44.5%
same,"viability, T/C",[7],37.1%
same,"viability, T/C",[8],37%
same,"viability, T/C",[9],24.6%
same,"viability, T/C",[10],25.9%
same,"viability, T/C",[11],23.9%
same,"viability, T/C",[12],25.3%
same,"viability, T/C",[13],21.2%
same,"viability, T/C",[14],25.9%
same,"viability, T/C",[15],25.4%
same,"viability, T/C",[16],22.1%
same,"viability, T/C",[17],33%
same,"viability, T/C",[18],17.5%
same,"viability, T/C",[19],18.2%
same,"viability, T/C",[20],22.1%
same,"viability, T/C",[21],23.5%
same,"viability, T/C",[22],19.4%
same,"viability, T/C",[23],21.9%
same,"viability, T/C",[24],21.5%
same,"viability, T/C",[25],11.4%
same,"viability, T/C",[26],13.9%
same,"viability, T/C",[27],29.8%
same,"viability, T/C",[28],10.7%
same,"viability, T/C",[29],13.1%
same,"viability, T/C",[30],11.4%
same,"viability, T/C",[31],26.2%
same,"viability, T/C",[32],16.6%
same,"viability, T/C",[33],10.7%
same,"viability, T/C",[34],21.9%
same,"viability, T/C",[35],25.5%
same,"viability, T/C",[36],23.4%
